In patent US8778643B2, “Methods for increasing lipid levels and producing triacylglycerols in algae” (priority 2012, dated 2014):
Like-named read-outs stand apart in the source and are kept apart here.

Tests used:
Nannochloropsis salina [1] = test: 500 mL batch culture: growth, dry weight and lipid extract (gravimetric); format: cell-based; conditions: for increase in lipid levels: batch cultures; for Lipid productivity / Lipid content / Change in Lipids / Specific Growth Rate: N. salina, 500 mL culture; for Lipid content: dried lipid extract per dry biomass; for Change in Lipids: gravimetric, relative to averaged control without DMSO; for Specific Growth Rate: mid-exponential growth phase
Experimental: (§1) Batch cultures were grown in 500 mL Pyrex media bottles with stirring and air bubbling (homemade manifold with Petco air pump, 2-4% CO2). Incoming air was sterile filtered by Polyvent 4 disposable filters (Whatman, Kent, UK). […] To minimize bacterial contamination, all equipment and materials were autoclaved and media was added to flask in a Purifier Vertical Clean bench (Labconco, Kansas City, Mo.). […] The amount of DMSO is standardized for all experiments to 0.4%.
(§2) For all compound cultures, the 2 mL DMSO stock solution was added to media (without algae) first and mixed well. Control cultures were grown without DMSO. DMSO controls consisted of 0.04-1.0% DMSO. After the addition of algae and media, the container was plugged with a bug stopper vented closure cap and mixed thoroughly. Absorbance is measured immediately for Day 0 analysis. Afterward, absorbance was measured every 1-2 days with a cuvette (1 mL volume) on the Thermo Scientific Genesys 10S V is Spectrophotometer (ThermoFisher, San Jose) at 680 nm.
(§3) Batch cultures were also repeated in triplicate and compared to a control culture grown at the same time. Algae were harvested and lipids were extracted for gravimetric analysis.
Cultures were harvested at day 6 in stationary phase. Cultures were pelleted, lyophilized, and extracted side-by-side. The experiment was performed in triplicate.
The nonpolar algal extracts were harvested from 500 mL cultures when indicated on growth curves, a minimum of 3 days into stationary phase. […] Cells were crushed and nonpolar lipids were extracted by sonication (Fisher Scientific Model 120 Sonic Dismembrator, ThermoFisher, San Jose) for 1 minute in chloroform, followed by chloroform-methanol extractions, washed with PBS butter, and dried under vacuum.^55-60 The crude non-polar algae extracts were then analyzed by ^1H Nuclear Magnetic Resonance (^1H NMR) for verification of TAG presence and examination of the purity of the extract (determination of level of chlorophyll).
(§4) Cell density was monitored by measuring absorbance at 680 nm every 1-2 days.
(§5) 500-mL cultures were harvested 6 days into stationary phase based on absorbance values. Cells were concentrated by centrifugation and lyophilization to remove water. Nonpolar lipids were extracted by sonication and solvent (chloroform-methanol and PBS buffer). […] Changes in lipid levels for batch cultures were determined by crude lipid extract mass.

[2] = DPPH free radical scavenging activity; cited from earlier work
Nannochloropsis salina [3] = conditions: for % Inc: increase of lipid production, best conc. 10 nM
Experimental: Stock cultures were aerated by stirring with bubbling air (homemade manifold with Petco air pump, 2-4% CO2) or by orbital shaking (Thermo Scientific MAXQ 2000) at a constant speed of 150 rpm at 22±3° C. with a 16:8 hour light/dark cycle. Stocks were kept at stationary phase for use. Algae were prepared as dictated by culture center.
Compounds were selected based on reported biological activity in non-microalgae organisms. To ensure that compounds retained their quality, they were stored under advised conditions after purchasing from the manufacturer. Solutions of all assay compounds were prepared as 10 mM stock solutions by dissolving in DMSO in 2-dram amber vials and then stored in darkness −20° C. 96-well PCR plates were used to create a stock plate layout that was then transferred to the algae microplates. A plate map was used to distribute each compound to a well based on molecule name, collection number, and CAS number. For 20 μM and 200 nM assay plates, 10 mM compound stock in DMSO was diluted into plate maps of 5 mM and 50 μM assay stocks, respectively.
All materials for assay experiments were autoclaved before each use to maintain axenic algae cultures. Algae species were checked for homogeneity using a TS-100 light microscope (Nikon, Japan). […] Diluted stock solutions were made immediately prior to use for consistency and optimal plate growth. Cell density was measured on a Thermo Scientific Genesys 10S Vis Spectrophotometer (ThermoFisher, San Jose), using a 1 mL cuvette at 680 nm.
Plates were originally run in triplicate, before replicates were increased to quadruplicate, along with a separate control plate to compare growth. Due to extensive evaporation in exterior wells over time, our unique algae plate layout was designed to use the 60 interior wells out of 96 wells for the experiment. The 36 outer wells were filled with Millipore water and media to prevent evaporation and edge effects in the inner algae wells, as well as serve as blanks. The 60 wells with algae contained a total volume of 251 μL (100 μL of media+DMSO compound stock +150 μL dilute algae stock). For 20 μM and 200 nM assay plates, 10 mM compound stock in DMSO is diluted into plate maps of 5 mM and 50 μM assay stocks, respectively. […] Plates were parafilmed during growth to limit the amount of evaporation that can occur. Plates were numbered, and numerically ordered to ensure they got the same shaker space.
The shakers are kept at a constant shaking of 150 rpm. Ambient temperature is 22±3° C.

[4] = tested on: fatty acid and sterol synthesis; conditions: cited from earlier work
[5] = tested on: Phaeodactylum tricornutum; test: 500 mL batch culture: growth, dry weight and lipid extract (gravimetric); format: cell-based; conditions: P. tricornutum, 500 mL culture, 120 nM
Experimental: as §1, §2, §3
The nonpolar algal extracts were harvested from 500 mL cultures when indicated on growth curves, a minimum of 3 days into stationary phase.
as §4, §5

Cdk2/cyclin E = Cdk2/cyclin E (Homo sapiens, UniProt P24941); conditions: cited from earlier work
Cdk2/cyclin A = Cdk2/cyclin A (Homo sapiens, UniProt P24941); conditions: Cdk2/cyclin A; cited from earlier work
c-Jun N-terminal kinase = conditions: cited from earlier work
Nannochloropsis oculata [6] = conditions: for Nile Red Fluorescence % Increase / % change in abs / % in NR fl: N. oculata; for Nile Red Fluorescence % Increase: compounds tested at 200 nM, initial screening, p<0.05
Nannochloris sp. [7] = test: Microplate assay: growth (absorbance 680 nm) and intracellular lipids (Nile Red fluorescence); format: cell-based; conditions: for Absorbance (percent increase) / Nile Red percent increase: initial microplate screen, relative to control; for % Lipid increase based on Nile red fluorescence intensity: (water), t=day 0; for Nile Red Fluorescence % Increase: initial screening, p<0.05
PKC = conditions: cited from earlier work
PKA = PKA (Homo sapiens, UniProt P17612); conditions: cited from earlier work
EGFR tyrosine kinase = EGFR tyrosine kinase (Homo sapiens, UniProt P00533); conditions: cited from earlier work
[8] = tested on: Phaeodactylum tricornutum; test: Microplate assay: growth (absorbance 680 nm) and intracellular lipids (Nile Red fluorescence); format: cell-based
[9] = target: phosphatidylinositol-specific phospholipase C (PI-PLC); conditions: cited from earlier work
[10] = target: histone lysine methyltransferase G9a (Homo sapiens, UniProt Q96KQ7); conditions: cited from earlier work
PTP1b = PTP1b (Homo sapiens, UniProt P18031); conditions: cited from earlier work
[11] = target: fatty acid amide hydrolase (Homo sapiens, UniProt O00519); conditions: cited from earlier work
[12] = target: T1, PKA (rat liver catalytic subunit) (Rattus norvegicus, UniProt P27791); conditions: cited from earlier work
T1 construct: rat liver catalytic subunit; host or cells: rat liver

MLCK = conditions: cited from earlier work
p70 S6 kinase activation = conditions: signaling that leads to p70 S6 kinase activation; cited from earlier work
CDK = conditions: CDKs; cited from earlier work
ERK signaling pathway = conditions: cited from earlier work
Diacylglycerol lipase = conditions: cited from earlier work
microalgae = test: 500 mL batch culture (growth, gravimetric lipids), algae strain not stated; format: cell-based; conditions: 500 mL batch cultures (Table 30)
Nannochloris sp. [13] = test: 500 mL batch culture: growth, dry weight and lipid extract (gravimetric); format: cell-based; conditions: Nannochloris sp., 500 mL culture, 40 nM
Nannochloropsis oculata [14] = test: Lipid composition of batch culture extracts (fatty acid saturation / PUFA by 1H NMR, MALDI-TOF, GC/MS); format: cell-based; conditions: N. oculata, 40 nM, n=1
Experimental: The nonpolar algal extracts were harvested from 500 mL cultures when indicated on growth curves, a minimum of 3 days into stationary phase. […] Cells were crushed and nonpolar lipids were extracted by sonication (Fisher Scientific Model 120 Sonic Dismembrator, ThermoFisher, San Jose) for 1 minute in chloroform, followed by chloroform-methanol extractions, washed with PBS butter, and dried under vacuum.^55-60 The crude non-polar algae extracts were then analyzed by ^1H Nuclear Magnetic Resonance (^1H NMR) for verification of TAG presence and examination of the purity of the extract (determination of level of chlorophyll). The extracts were then divided for analysis; one part for transesterification, one part to save as crude extract, and one part for SPE separation and MALDI-TOF analysis of TAGs.
Triacylglycerols can be isolated by solid-phase extraction (SPE) with 500 mg silica SPE cartridges (Silicycle, Quebec). The nonpolar extract is dissolved in 300 μL hexanes, and loaded on the SPE cartridge primed with hexanes. A mixture of 80:20:1 hexanes/diethyl ether/acetic acid was used as mobile phase to elute the TAGs.^61 SPE removes any chlorophyll in this process. Residual polar fraction containing polar lipids and chlorophyll was obtained by elution with acetone. All extracts and TAG fractions were dried under vacuum and stored under argon in amber vials at −20° C. before spectroscopic analysis. After SPE, the purified TAG fraction was reanalyzed with ^1H NMR spectroscopy for TAG characterization.
The TOF was in Reflectron mode with laser intensity from 5500-6500 Volts. Each acquisition consisted of 2500 shots with a focus mass of 900 Da, and a scan range of m/z 400-1100. Multiple acquisition scans were performed at different laser intensities to determine optimal conditions. Samples for the MALDI-TOF were diluted to 5 mg/mL in hexane, and spotted in the fast-evaporation method in a 1:2 ratio with DHB (2,5-dihydroxybenzoic acid) as the matrix. Re-spotting with methanol allowed for the matrix and sample to mix without hexane interactions, and allowed for better crystal formation. All samples on MALDI plate were allowed to dry before MS analysis. Data was normalized to base peak in all cases.
After the initial weight was recorded, the nonpolar extract set aside for transesterification was dissolved in 3.0 mL of 0.6 M sulfuric acid in methanol and stirred vigorously at 60° C. for 45 minutes.
Initial GC/MS temperature was 50° C. and end was 200° C. over at a one hour period for optimal FAME peak separation.
Peak assignment of fatty acids and their derivatives are based on NMR spectroscopic studies of previously reported algal lipid extracts^9 and comparison to standards such as olive oil (ACROS) and fatty acid mixtures.
We developed a quick and robust method to screen if the screened compound effect fatty acid saturation levels using ^1H NMR spectroscopy. The amount of saturated fatty acids (SFA), monounsaturated fatty acids (MUFAs), and polyunsaturated fatty acids (PUFAs) was determined using peak area ratios.
Calculated based on ^1H NMR integral ratios for the proton signals for the methyl group of PUFA components vs. the methyl groups of monounsaturated and saturated components.

[15] = tested on: microsomal lipid peroxidation; conditions: cited from earlier work
[16] = gravimetric, relative to averaged control without DMSO
[17] = Nannochloris sp., compounds tested at 200 nM
[18] = Nannochloris sp., compounds tested at 20 μM
[19] = 40 μM, initial microplate screen, relative to control

Chain of EGFR tyrosine kinase (P00533 25-1210): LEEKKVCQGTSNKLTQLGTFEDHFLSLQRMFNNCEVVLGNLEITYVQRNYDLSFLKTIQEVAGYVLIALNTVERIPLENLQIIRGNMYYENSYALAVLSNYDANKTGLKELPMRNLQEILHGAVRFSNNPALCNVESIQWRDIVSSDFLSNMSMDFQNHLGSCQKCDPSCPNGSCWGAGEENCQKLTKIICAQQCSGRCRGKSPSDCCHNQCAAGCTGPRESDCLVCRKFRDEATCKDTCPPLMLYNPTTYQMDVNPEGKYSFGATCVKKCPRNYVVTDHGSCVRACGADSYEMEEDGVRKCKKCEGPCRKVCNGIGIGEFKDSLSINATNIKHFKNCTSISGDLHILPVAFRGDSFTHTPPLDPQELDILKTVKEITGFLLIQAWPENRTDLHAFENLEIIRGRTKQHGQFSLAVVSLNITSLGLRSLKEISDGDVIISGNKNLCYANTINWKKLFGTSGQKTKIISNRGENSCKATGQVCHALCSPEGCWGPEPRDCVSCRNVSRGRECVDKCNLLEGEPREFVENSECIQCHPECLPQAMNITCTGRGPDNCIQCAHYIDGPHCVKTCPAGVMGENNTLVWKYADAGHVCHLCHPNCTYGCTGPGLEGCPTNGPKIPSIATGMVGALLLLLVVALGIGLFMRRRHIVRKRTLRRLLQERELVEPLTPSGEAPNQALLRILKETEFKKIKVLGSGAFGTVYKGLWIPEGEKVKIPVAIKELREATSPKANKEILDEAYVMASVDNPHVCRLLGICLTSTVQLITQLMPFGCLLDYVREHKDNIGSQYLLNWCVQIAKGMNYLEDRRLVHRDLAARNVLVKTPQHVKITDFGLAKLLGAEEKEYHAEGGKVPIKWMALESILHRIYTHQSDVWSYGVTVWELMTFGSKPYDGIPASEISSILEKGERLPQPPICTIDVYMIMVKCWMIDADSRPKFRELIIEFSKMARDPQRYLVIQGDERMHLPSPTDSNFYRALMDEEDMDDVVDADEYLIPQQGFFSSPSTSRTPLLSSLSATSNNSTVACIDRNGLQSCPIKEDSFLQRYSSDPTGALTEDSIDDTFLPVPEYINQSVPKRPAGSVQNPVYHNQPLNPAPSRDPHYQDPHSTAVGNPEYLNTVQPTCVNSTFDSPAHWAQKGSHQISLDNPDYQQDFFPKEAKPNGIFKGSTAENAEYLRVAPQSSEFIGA
Chain of histone lysine methyltransferase G9a (Q96KQ7 whole entry): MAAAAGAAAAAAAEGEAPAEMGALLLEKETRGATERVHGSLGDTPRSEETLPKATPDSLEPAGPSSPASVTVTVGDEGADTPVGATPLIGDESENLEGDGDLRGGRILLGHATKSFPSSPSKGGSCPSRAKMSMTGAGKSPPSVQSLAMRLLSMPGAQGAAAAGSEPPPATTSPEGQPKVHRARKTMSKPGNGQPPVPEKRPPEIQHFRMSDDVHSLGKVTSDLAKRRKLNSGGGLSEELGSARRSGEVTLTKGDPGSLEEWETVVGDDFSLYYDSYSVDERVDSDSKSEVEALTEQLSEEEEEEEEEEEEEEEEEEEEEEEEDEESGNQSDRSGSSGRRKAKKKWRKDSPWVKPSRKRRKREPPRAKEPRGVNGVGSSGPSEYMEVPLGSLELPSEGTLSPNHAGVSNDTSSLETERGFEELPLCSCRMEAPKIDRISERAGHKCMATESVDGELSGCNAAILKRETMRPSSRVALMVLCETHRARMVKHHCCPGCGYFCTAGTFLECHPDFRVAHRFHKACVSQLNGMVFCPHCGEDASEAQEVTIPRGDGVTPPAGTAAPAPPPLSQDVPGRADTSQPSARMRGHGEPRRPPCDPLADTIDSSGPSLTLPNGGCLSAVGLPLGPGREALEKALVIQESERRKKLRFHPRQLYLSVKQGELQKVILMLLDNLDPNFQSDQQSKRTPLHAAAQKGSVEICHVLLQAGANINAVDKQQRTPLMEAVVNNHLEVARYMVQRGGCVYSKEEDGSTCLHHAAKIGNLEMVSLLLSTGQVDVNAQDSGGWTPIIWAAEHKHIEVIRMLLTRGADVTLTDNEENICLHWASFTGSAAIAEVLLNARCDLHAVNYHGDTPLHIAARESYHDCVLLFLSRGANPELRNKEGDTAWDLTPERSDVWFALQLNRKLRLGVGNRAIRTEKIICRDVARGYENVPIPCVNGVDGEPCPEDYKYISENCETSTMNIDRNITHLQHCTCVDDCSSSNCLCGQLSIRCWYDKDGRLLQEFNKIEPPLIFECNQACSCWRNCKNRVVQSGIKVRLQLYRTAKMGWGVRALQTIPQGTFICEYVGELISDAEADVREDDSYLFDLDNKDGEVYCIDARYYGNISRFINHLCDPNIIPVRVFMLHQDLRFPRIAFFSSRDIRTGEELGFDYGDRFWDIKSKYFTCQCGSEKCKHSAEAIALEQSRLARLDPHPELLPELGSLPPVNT
Chain of PTP1b (P18031 whole entry, species assumed): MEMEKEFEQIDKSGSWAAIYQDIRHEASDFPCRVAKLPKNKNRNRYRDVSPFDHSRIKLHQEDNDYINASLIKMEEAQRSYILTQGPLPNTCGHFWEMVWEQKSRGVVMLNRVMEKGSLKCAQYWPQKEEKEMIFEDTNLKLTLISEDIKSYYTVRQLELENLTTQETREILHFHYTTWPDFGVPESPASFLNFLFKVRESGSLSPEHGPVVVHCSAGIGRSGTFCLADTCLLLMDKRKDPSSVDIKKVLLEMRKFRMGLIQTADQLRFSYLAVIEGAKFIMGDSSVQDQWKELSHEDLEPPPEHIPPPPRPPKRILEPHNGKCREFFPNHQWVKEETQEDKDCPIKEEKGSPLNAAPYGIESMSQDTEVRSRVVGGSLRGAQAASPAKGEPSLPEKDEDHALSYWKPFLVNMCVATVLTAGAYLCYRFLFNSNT
Chain of fatty acid amide hydrolase (O00519 whole entry): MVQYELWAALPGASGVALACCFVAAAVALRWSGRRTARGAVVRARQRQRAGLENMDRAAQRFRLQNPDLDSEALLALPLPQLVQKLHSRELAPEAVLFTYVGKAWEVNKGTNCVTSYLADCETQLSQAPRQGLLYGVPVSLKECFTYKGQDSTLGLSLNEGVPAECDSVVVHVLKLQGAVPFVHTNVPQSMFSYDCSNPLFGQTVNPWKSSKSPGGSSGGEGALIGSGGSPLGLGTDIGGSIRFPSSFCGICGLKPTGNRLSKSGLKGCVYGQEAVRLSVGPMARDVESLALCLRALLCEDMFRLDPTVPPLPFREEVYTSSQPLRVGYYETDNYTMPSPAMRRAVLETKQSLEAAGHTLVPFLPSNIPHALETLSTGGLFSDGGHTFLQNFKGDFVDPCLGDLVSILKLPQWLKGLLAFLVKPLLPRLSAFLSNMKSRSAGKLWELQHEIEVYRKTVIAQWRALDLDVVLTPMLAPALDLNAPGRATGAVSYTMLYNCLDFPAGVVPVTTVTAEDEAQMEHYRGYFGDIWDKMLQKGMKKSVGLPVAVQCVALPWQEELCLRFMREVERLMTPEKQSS

## 2-tert-Butyl-4-hydroxyanisole and 3-tert-butyl-4-hydroxyanisole (mixture) [BHA]
Nannochloropsis salina [1]; 4 nM
  increase in lipid levels: 63%
  Lipid productivity: 8.1 ± 0.6 mgL^−1day^−1
  Lipid content: 28.8 ± 11.4 % w/w
  Change in Lipids: 63%
  Specific Growth Rate: 0.23 ± 0.002 day⁻¹
[2]
  IC50: 43 µM
Nannochloropsis salina [3]; N. salina
  % Inc: 290.14%

## NC(=O)c1ncn([C@@H]2O[C@H](COP(=O)(O)O)[C@@H](O)[C@H]2O)c1N [AICAR, [(2R,3S,4R,5R)-5-(4-Carbamoyl-5-amino-imidazol-1-yl)-3,4-dihydroxyoxolan-2-yl]methyl dihydrogen phosphate]
[4]
  inhibitor of fatty acid and sterol synthesis (concentration): synthesis (0.5 mM), inactivates HMG-CoA reductase
[5]
  Lipid productivity: 7.0 ± 0.9 mgL^−1day^−1
[5]; dried lipid extract per dry biomass
  Lipid content: 22.7 ± 1.3 % w/w
[5]; [16]
  Change in Lipids: 45%
[5]; mid-exponential growth phase
  Specific Growth Rate: 0.34 ± 0.04 day⁻¹

## CCCCc1c(-c2ccc(O)cc2)[nH]c2nccnc12 [Aloisine A, 7-n-Butyl-6-(4-hydroxyphenyl)[5H]pyrrolo[2,3-b]pyrazine]
Cdk2/cyclin E
  IC50: 0.4 µM
Cdk2/cyclin A
  IC50: 0.12 µM
c-Jun N-terminal kinase
  IC50: 3 to 10 µM
Nannochloropsis oculata [6]
  Nile Red Fluorescence % Increase: 117.7%
Nannochloris sp. [7]; 200 nM
  Absorbance (percent increase): −5.4%
  Nile Red percent increase: 125.9%
Nannochloris sp. [7]; 20 μM
  Absorbance (percent increase): −12.6%
  Nile Red percent increase: 84.1%

## CN(C)CCCn1cc(C2=C(c3c[nH]c4ccccc34)C(=O)NC2=O)c2ccccc21 [Bisindolylmaleimide, 2-[1-(3-Dimethylaminopropyl)-1H-indol-3-yl]-3-(1H-indol-3-yl)-maleimide]
PKC
  Ki: 0.01 µM
PKA
  Ki: 2 µM
Nannochloris sp. [7]; 0 h, 1.3 µM
  % Increase based on Nile Red Fluorescence Intensity: 70%
Nannochloris sp. [7]; Nannochloris sp., 49 nM
  % Lipid increase based on Nile red fluorescence intensity: 141%

## O=C(/C=C/c1ccc(O)c(O)c1)c1ccc(O)cc1O [Butein, (E)-1-(2,4-dihydroxyphenyl)-3-(3,4-dihydroxyphenyl)prop-2-en-1-one]
EGFR tyrosine kinase
  IC50: 65 µM
[8]; 54 nM-40 μM (H2O)
  % increase (lipid production): 1-116 (H2O) %
[8]; 40 μM
  % increase (lipid production): 14%

## CCCCCCCCCCCCCCCCCCOCC(COP(=O)([O-])OCC[N+](C)(C)C)OC (stereo not shown) [ET-18-OCH3, 2-Methoxy-3-(octadecyloxy)propyl 2-(trimethylammonio)ethyl phosphate]
Nannochloropsis oculata [6]; 10 μM
  % change in abs: 5.73%
  % in NR fl: 50.05%
Nannochloropsis oculata [6]; 40 μM
  % change in abs: −5.90%
  % in NR fl: 57.25%
[9]
  IC50: 9.6 µM

## COC(=O)C=Cc1cc(O)ccc1O [Erbstatin analog, 2,5-Dihydroxymethylcinnamate]
[10]
  IC50: 2.82 µM
Nannochloris sp. [7]; 200 nM
  Absorbance (percent increase): −7.6%
  Nile Red percent increase: 90.7%
Nannochloris sp. [7]; [17]
  Nile Red Fluorescence % Increase: 80.2%
Nannochloris sp. [7]; [18]
  Nile Red Fluorescence % Increase: 40.5%

## CCN(NO)C1=CC(=O)C(=O)C=C1 [Ethyl 3,4-dephostatin, 4-[(hydroxyamino)-ethylamino]cyclohexa-3,5-diene-1,2-dione]
PTP1b
  IC50: 3.2 µM
Nannochloropsis oculata [6]; 0.0252-165.6, concentrations giving an increase: (none)
  % increase (lipid production): (none)
Nannochloropsis salina [3]; 0.0252-165.6 nM (H2O)
  % increase (lipid production): 8-61%
Nannochloropsis salina [3]; 0.0252-165.6 nM, not marked H2O
  % increase (lipid production): 8-20%
[8]; [19]
  Absorbance (percent increase): −2.4%
  Nile Red percent increase: 115.0%
[8]; 0.0252-165.6 nM (H2O)
  % increase (lipid production): 8-106%
[8]; 2-18.4 nM
  % increase (lipid production): 3-67%

## CCCCNC(=O)Oc1ccc(OCc2ccccc2)cc1 [FAAH Inhibitor I, 4-Benzyloxyphenyl-n-butylcarbamate]
[11]
  IC50: 0.396 µM
Nannochloris sp. [7]; Nannochloris sp., 0.6 nM
  % Lipid increase based on Nile red fluorescence intensity: 189%
Nannochloris sp. [7]; Nannochloris sp., 0.6 nM, dissolved in water, added t=day 0
  % Increase based on Nile Red Fluorescence Intensity: 189%
Nannochloris sp. [7]; Nannochloris sp., 49 nM, dissolved in water, added t=day 0
  % Increase based on Nile Red Fluorescence Intensity: 160%
Nannochloris sp. [7]; Nannochloris sp., 440 nM, dissolved in water, added t=day 0
  % Increase based on Nile Red Fluorescence Intensity: 161%
Nannochloris sp. [7]; Nannochloris sp., 1.3 μM, dissolved in water, added t=day 0
  % Increase based on Nile Red Fluorescence Intensity: 152%

## Oc1cc(O)cc(/C=C/c2ccc(O)c(O)c2)c1 [Piceatannol, 3,3′,4,5′-Tetrahydroxy-trans-stilbene]
[12]
  IC50: 3 µM
PKC; PKC
  IC50: 8 µM
Nannochloropsis salina [3]; 40 μM, dose-response microplate screen
  Nile Red percent increase: 195%
Nannochloropsis salina [3]; 55-40 μM
  % increase (lipid production): 0.3-148%
[8]; 4-40 μM (H2O)
  % increase (lipid production): 7-41 (H2O) %
MLCK
  IC50: 12 µM

## CO[C@H]1C[C@@H]2CC[C@@H](C)[C@@](O)(O2)C(=O)C(=O)N2CCCC[C@H]2C(=O)O[C@H]([C@H](C)C[C@@H]2CC[C@@H](O)[C@H](OC)C2)CC(=O)[C@H](C)/C=C(\C)[C@@H](O)[C@@H](OC)C(=O)[C@H](C)C[C@H](C)/C=C/C=C/C=C/1C [Rapamycin, (3S,6R,7E,9R,10R,12R,14S,15E,17E,19E,21S,23S,26R,27R,34aS)-9,10,12,13,14,21,22,23,24,25,26,27,32,33,34,34a-hexadecahydro-9,27-dihydroxy-3-[(1R)-2-[(1S,3R,4R)-4-hydroxy-3-methoxycyclohexyl]-1-methylethyl]-10,21-dimethoxy-6,8,12,14,20,26-hexamethyl-23,27-epoxy-3H-pyrido[2,1-c][1,4]-oxaazacyclohentriacontine-1,5,11,28,29(4H,6H,31H)-pentone]
p70 S6 kinase activation
  IC50: 50 pM
Nannochloropsis oculata [6]
  Nile Red Fluorescence % Increase: 141.6%
Nannochloris sp. [7]; 200 nM
  Absorbance (percent increase): −5.9%
  Nile Red percent increase: 107.9%
Nannochloris sp. [7]; [18]
  Nile Red Fluorescence % Increase: 117.3%

## COc1ccc2c(c1)/C(=C/c1cnc[nH]1)C(=O)N2 [SU9516]
CDK
  IC50: 0.022 µM

## Cn1cnc2c1c(=O)[nH]c(=O)n2C [Theobromine]
Nannochloris sp. [7]; [17]
  Nile Red Fluorescence % Increase: 34.3%
ERK signaling pathway
  potency: (potency = 0.004 μM)

## CCCCCCCCCCC[C@@H](C[C@@H]1OC(=O)[C@H]1CCCCCC)OC(=O)[C@H](CC(C)C)NC=O [orlistat, (S)-((S)-1-((2S,3S)-3-hexyl-4-oxooxetan-2-yl)tridecan-2-yl) 2-formamido-4-methylpentanoate]
Diacylglycerol lipase
  IC50: 1 µM
microalgae
  effect on growth and lipid levels: positive increases in growth and lipid levels
Nannochloris sp. [13]
  Lipid productivity: 5.1 ± 1.5 mgL^−1day^−1
Nannochloris sp. [13]; [16]
  Change in Lipids: 72%
Nannochloris sp. [13]; mid-exponential growth phase
  Specific Growth Rate: 0.20 ± 0.01 day⁻¹
Nannochloropsis oculata [6]; 13 nM
  % change in abs: 0.83%
  % in NR fl: 63.67%
Nannochloropsis salina [3]; N. salina, 40 μM
  % change in abs: −31.92%
  % in NR fl: 61.76%
Nannochloropsis oculata [14]; Normal 0 ± 1
  SFAs (%): 3%
Nannochloropsis oculata [14]; Normal 4 ± 7
  MUFAs (%): 29%
Nannochloropsis oculata [14]; Normal 28 ± 4
  n3 PUFAs (%): 16%
Nannochloropsis oculata [14]; Normal 96 ± 7
  PUFAs (%): 68%

## CCCOC(=O)c1cc(O)c(O)c(O)c1 [propyl gallate, propyl 3,4,5-trihydroxybenzoate]
Nannochloropsis salina [1]; 40 nM
  increase in lipid levels: 67%
  Lipid productivity: 8.3 ± 1.7 mgL^−1day^−1
  Lipid content: 25.9 ± 11.4 % w/w
  Change in Lipids: 67%
  Specific Growth Rate: 0.23 ± 0.002 day⁻¹
[15]
  IC50: 4.5 µM
Nannochloropsis salina [3]; N. salina
  % Inc: 264.42%
